Source: US20110165173A1, “THERAPEUTIC AGENT AND DETECTION REAGENT FOR ARTERIOSCLEROTIC DISEASE WHICH TARGETS FOR SALUSIN” (PROTEINEXPRESS CO., LTD., priority 2007, published 2011)

What was measured:
ACAT-1 mRNA expression = ACAT-1 mRNA expression in human monocyte-derived macrophages (real time RT-PCR); type: cell-based; conditions: 0.6 nM during 7-day culture
Experimental: RNA extraction was performed using a TRIzol reagent (LIFE TECHNOLOGIES).
Cells were cultured for 7 days in a medium and then the medium was removed. The cells were washed 3 times with PBS. PBS was sufficiently removed therefrom and TRIzol (1 mL) was added thereto for cell lysis. The cell extraction solution was pippeted in and out 5 times and then transferred to a new Eppendorf tube. Then, the tube was left at room temperature for 5 minutes. Chloroform (200 μL) was added thereto, followed by strong shaking for 15 seconds. The tube was further left for 2 to 3 minutes and centrifuged at 12,000 rpm for 15 minutes (Himac CF15D2 high-speed micro refrigerated centrifuge; Hitach, Ltd.). The top layer was transferred to a new Eppendorf tube and isopropanol (500 μL) was added thereto, followed by end-over-end mixing. […] The concentration of the thus obtained RNA solution was obtained by absorbance determination at 260 nm. […]
Next, the RNA expression of ACAT-1 mRNA was analyzed by the real time RT-PCR method.
Primer sequences were determined Primer Express Version 1.0 (PE Biosystems) with the use of the respective human mRNA sequences shown below. […]
Real time PCR was performed to quantify the obtained cDNA by the GeneAmp 5700 Sequence Detection System (Applied Biosystems Japan) with the use of qPCR MasterMix SYBR Greenl (Eurogentec). […]

SR-A = SR-A expression by macrophages of treated apoE-deficient mice (Western blotting); type: in vivo; conditions: four weeks
Experimental: 13-week-old male apoE-deficient mice (72 mice) were divided into the following 6 groups: (i) physiological salt saline (control); (ii) salusin-α (0.6 nmol/kg/h); (iii) salusin-β (0.6 nmol/kg/h); (iv) salusin-α (0.6 nmol/kg/h)+anti-salusin-α serum (1.4 μg/kg/h); (v) salusin-β (0.6 nmol/kg/h)+anti-salusin-β serum (1.4 μg/kg/h); and (vi) anti-salusin-β serum (1.4 μg/kg/h). The mice were subjected to continuous subcutaneous administration with the use of an osmotic mini-pump for 4 to 8 weeks. The osmotic mini-pump and the solution contained therein were changed every week.
Macrophages were collected as in the experiment in (1), and the protein expression of the gene involved in foaming of macrophages (i.e., scavenger receptors CD36 and SR-A capable of recognizing oxidized LDL, intracellular cholesterol esterification enzyme ACAT1, and ABCA1, ABCG1, and SR-BI, which are involved in cholesterol efflux) was analyzed by Western blotting. For the internal standard of the macrophage function, β-actin expression was also examined. For quantification of the band concentration, Analyzer (ATTO Corporation, Tokyo) was used.

Substance | ACAT-1 mRNA expression level, percent of that of the control (ACAT-1 mRNA expression) [%] | SR-A protein expression (SR-A; salusin-α 0.6 nmol/kg/h) | ACAT-1 mRNA expression level relative to control (ACAT-1 mRNA expression) [times] | SR-A protein expression relative to control level (SR-A; 0.6 nmol/kg/h, range given jointly for CD36, SR-A, ACAT1, P<0.05) [times]
salusin-α: peptide (SEQ ID NO: 1) comprising 28 amino acid residues, generated by processing from preprosalusin (SGALPPAPAAPRPALRAQRAGPAGPGAK; listed as Homo sapiens) | 80 | did not influence |  | 
salusin-β: peptide (SEQ ID NO: 3) comprising 20 amino acid residues, generated by processing from preprosalusin (AIFIFIRWLLKLGHHGRAPP; listed as Homo sapiens) [reference compound] |  |  | 1.6 | 1.5 to 2.8
